US9040479B2, “HCV NS3 protease inhibitors” (RFS Pharma, LLC, priority 2012, dated 2015)
Values joined by “and” are separate entries in the source; they are usually repeats but may differ in a detail not shown here. Equal entries are not always repeated.

Columns and labels:
[1] = Cytotoxicity assay in CEM cells; type: cell-based; settings: human, CEM (human lymphoblastoid) cells
Protocol: (§1) The toxicity of the compounds was assessed in Vero, human PBM, CEM (human lymphoblastoid), MT-2, and HepG2 cells, as described previously (see Schinazi R. F., Sommadossi J.-P., Saalmann V., Cannon D. L., Xie M.-Y., Hart G. C., Smith G. A. & Hahn E. F. Antimicrob. Agents Chemother. 1990, 34, 1061-67). Cycloheximide was included as positive cytotoxic control, and untreated cells exposed to solvent were included as negative controls. The cytotoxicity IC50 was obtained from the concentration-response curve using the median effective method described previously (see Chou T.-C. & Talalay P. Adv. Enzyme Regul. 1984, 22, 27-55; Belen'kii M. S. & Schinazi R. F. Antiviral Res. 1994, 25, 1-11).

[2] = Cytotoxicity assay in PBM cells; type: cell-based; settings: human, figure in parentheses not defined
Protocol: as §1

[3] = Cytotoxicity assay in Vero cells; type: cell-based; settings: African green monkey, figure in parentheses not defined
Protocol: as §1

[4] = system: HCV replicon RNA in Huh 7 Clone B cells; assay: HCV replicon assay (replicon RNA by real time RT-PCR); type: cell-based; settings: for HCV Ct: single replicates
Protocol: (§2) Following five days incubation (37° C., 5% CO2), total cellular RNA was isolated by using versaGene RNA purification kit from Gentra. Replicon RNA and an internal control (TaqMan rRNA control reagents, Applied Biosystems) were amplified in a single step multiplex Real Time RT-PCR Assay. The antiviral effectiveness of the compounds was calculated by subtracting the threshold RT-PCR cycle of the test compound from the threshold RT-PCR cycle of the no-drug control (ΔCt HCV). A ΔCt of 3.3 equals a 1-log reduction (equal to 90% less starting material) in Replicon RNA levels. The cytotoxicity of the compounds was also calculated by using the ΔCt rRNA values. (2′-Me-C) was used as the control. To determine EC90 and IC50 values^2, ΔCt: values were first converted into fraction of starting material^3 and then were used to calculate the % inhibition. […]

[5] = HCV replicon assay, cytotoxicity from rRNA Ct values; type: cell-based; settings: human, Huh 7 Clone B cells containing HCV replicon RNA; from rRNA, Huh 7 Clone B cells
Protocol: as §2

[6] = system: Huh 7 Clone B cells (rRNA); assay: as above; type: cell-based; settings: for rRNA Ct: single replicates
Protocol: as §2

[7] = system: HepG2 cells; settings: HepG2 cells incubated with 10 μM; cited from earlier work
[8] = Hepatitis C virus, Huh-7, 120 h, HCV replicon, five days incubation

Work on `C=C[C@@H]1C[C@]1(NC(=O)[C@@H]1C[C@@H](OC(=O)N2Cc3cccc(F)c3C2)CN1C(=O)[C@@H](NC(=O)C(C)(C)C(F)(F)F)C(C)(C)C)C(=O)NS(=O)(=O)C1CC1` [drawing 11] yielded an IC50 [1] of 85.1 µM, an IC50 [2] of over 100 µM and an IC50 [3] of at least 100 µM.
With `C=C[C@@H]1C[C@]1(NC(=O)[C@@H]1C[C@@H](OC(=O)N2Cc3cccc(F)c3C2)CN1C(=O)[C@@H](NC(=O)C(C)(C)C(F)(F)F)C(C)(C)C)C(=O)NS(=O)(=O)C1CC1` [drawing 12] the “% Inhit (HCV)” value ([4]; 3 nM) was −33.8%, the “DCt HCV” value ([4]; 3 nM) was −0.4 and the “HCV Ct Average” value ([4]; 3 nM) was 22.8. The “HCV Ct” value ([4]; 3 nM) was 22.6 (2×) and 23.2, the “% Inhit (HCV)” value ([4]; 10 nM) was 91.7% and the “DCt HCV” value ([4]; 10 nM) was 3.6. For the same compound, the “HCV Ct Average” value ([4]; 10 nM) was 26.8, the “HCV Ct” value ([4]; 10 nM) was 27.0 and 26.9 and 26.6 and the “% Inhit (HCV)” value ([4]; 33 nM) was 98.0%. The “DCt HCV” value ([4]; 33 nM) was 5.7, the “HCV Ct Average” value ([4]; 33 nM) was 28.9 and the “HCV Ct” value ([4]; 33 nM) was 29.2 and 29.1 and 28.4. For the same compound, the “% Inhit (HCV)” value ([4]; 100 nM) was 99.4%, the “DCt HCV” value ([4]; 100 nM) was 7.3 and the “HCV Ct Average” value ([4]; 100 nM) was 30.5. For the same compound, the “HCV Ct” value ([4]; 100 nM) was 30.3 and 30.5 and 30.8, the EC50 [4, 8] was 7.7 nM and the EC90 [4, 8] was 9.9 nM. The CC50 at 5 days [5] was over 100 nM, the “DCt rRNA” value ([6]; 3 nM) was −0.8 and the “rRNA Ct Average” value ([6]; 3 nM) was 19.2. For the same compound, the “rRNA Ct” value ([6]; 3 nM) was 19.2 and 19.3 and 18.9, the “DCt rRNA” value ([6]; 10 nM) was −0.9 and the “rRNA Ct Average” value ([6]; 10 nM) was 19.0. For the same compound, the “rRNA Ct” value ([6]; 10 nM) was 19.2 and 18.9 and 19.0, the “DCt rRNA” value ([6]; 33 nM) was −0.8 and the “rRNA Ct Average” value ([6]; 33 nM) was 19.1. For the same compound, the “rRNA Ct” value ([6]; 33 nM) was 19.2 (2×) and 19.1, the “DCt rRNA” value ([6]; 100 nM) was −1.0 and the “rRNA Ct Average” value ([6]; 100 nM) was 19.0. The “rRNA Ct” value ([6]; 100 nM) was 19.0 and 18.8 and 19.2, the inhibition at 0.003 µM ([6]; Homo sapiens, Huh-7, 3 nM, read-out: % inhib. rRNA) was -74.8% and the inhibition at 0.01 µM ([6]; Homo sapiens, Huh-7, 10 nM, read-out: % inhib. rRNA) was -89.1%. For the same compound, the inhibition at 0.033 µM ([6]; Homo sapiens, Huh-7, 33 nM, read-out: % inhib. rRNA) was -75.6% and the inhibition at 0.1 µM ([6]; Homo sapiens, Huh-7, 100 nM, read-out: % inhib. rRNA) was -95.2%.
For `O=c1[nH]c(=O)n([C@@H]2O[C@H](CO)[C@@H](O)[C@@H]2F)cc1I` [fialuridine, 1,2′-deoxy-2′-fluoro-1-D-arabinofuranosly-5-iodo-uracil], the “morphological changes in mitochondria (electron micrographs)” value [7] is given as “enlarged mitochondria with morphological changes consistent with mitochondrial dysfunction”.
